{
  "source": "ChEMBL document CHEMBL1201862",
  "about": "“PubChem BioAssay data set” (2004)",
  "key": {"[1]": {"biological_target": "Transitional endoplasmic reticulum ATPase (Homo sapiens, UniProt P55072)", "sequence (P55072 whole entry)": "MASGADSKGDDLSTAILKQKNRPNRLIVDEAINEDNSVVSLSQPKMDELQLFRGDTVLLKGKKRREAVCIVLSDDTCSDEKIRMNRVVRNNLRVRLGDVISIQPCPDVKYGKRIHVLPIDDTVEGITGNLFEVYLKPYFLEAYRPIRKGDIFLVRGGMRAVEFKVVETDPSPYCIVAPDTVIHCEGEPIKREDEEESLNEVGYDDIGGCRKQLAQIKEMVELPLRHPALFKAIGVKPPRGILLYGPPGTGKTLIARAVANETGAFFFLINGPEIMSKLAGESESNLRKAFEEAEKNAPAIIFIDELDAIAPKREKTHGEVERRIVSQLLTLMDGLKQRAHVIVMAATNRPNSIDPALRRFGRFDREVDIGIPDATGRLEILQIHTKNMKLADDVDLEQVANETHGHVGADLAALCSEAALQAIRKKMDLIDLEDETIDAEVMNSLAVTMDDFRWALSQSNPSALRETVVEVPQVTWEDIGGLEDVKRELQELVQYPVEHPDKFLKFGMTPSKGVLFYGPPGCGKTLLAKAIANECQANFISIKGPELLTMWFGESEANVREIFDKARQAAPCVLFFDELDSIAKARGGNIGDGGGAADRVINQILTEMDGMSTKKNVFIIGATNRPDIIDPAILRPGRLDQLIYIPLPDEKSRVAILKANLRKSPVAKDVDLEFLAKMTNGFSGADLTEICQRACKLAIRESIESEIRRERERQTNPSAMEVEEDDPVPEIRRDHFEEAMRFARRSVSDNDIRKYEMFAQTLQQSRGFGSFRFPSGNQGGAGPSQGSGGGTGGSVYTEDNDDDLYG", "assay": "p97 ATPase inhibitors, dose response, biochemical (AID 1534)"}, "[2]": {"biological_target": "Transitional endoplasmic reticulum ATPase (Homo sapiens, UniProt P55072, C522A)", "sequence (P55072 2-806 C522A limits assumed)": "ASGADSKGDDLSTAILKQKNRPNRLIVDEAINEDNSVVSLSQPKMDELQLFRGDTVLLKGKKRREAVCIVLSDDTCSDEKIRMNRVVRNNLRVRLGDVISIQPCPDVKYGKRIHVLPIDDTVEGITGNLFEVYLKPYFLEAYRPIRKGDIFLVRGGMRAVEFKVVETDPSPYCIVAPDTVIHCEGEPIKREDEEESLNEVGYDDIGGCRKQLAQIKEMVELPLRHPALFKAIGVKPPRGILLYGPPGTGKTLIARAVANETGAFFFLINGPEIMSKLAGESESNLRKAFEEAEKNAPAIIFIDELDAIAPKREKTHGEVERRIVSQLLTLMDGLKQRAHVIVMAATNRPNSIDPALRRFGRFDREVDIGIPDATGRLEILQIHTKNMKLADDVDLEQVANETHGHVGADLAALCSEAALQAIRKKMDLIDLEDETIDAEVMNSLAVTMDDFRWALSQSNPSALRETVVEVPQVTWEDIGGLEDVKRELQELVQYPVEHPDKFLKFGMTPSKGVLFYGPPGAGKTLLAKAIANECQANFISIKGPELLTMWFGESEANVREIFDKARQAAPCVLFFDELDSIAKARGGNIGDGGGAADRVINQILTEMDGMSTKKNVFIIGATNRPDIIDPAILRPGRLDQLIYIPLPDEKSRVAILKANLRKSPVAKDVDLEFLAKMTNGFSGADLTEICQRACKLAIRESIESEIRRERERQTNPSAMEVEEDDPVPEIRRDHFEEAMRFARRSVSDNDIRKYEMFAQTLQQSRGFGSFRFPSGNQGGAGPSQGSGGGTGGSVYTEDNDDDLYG", "assay": "C522A mutant p97 ATPase inhibitors, dose response, counter-screen for p97 inhibitor project, biochemical, luminescence (AID 1544)"}, "[3]": {"assay": "mitochondrial function rescue without frataxin homolog – Friedreich's ataxia, plus single-dose screen, dose response (AID 1465);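 further: yeast depleted of Yfh1p frataxin homolog grown on glycerol needing respiration; WST-1 tetrazolium dye reduction as measure of cellular dehydrogenase metabolic activity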", "type": "functional"}, "[4]": {"biological_target": "Peroxisome proliferator-activated receptor gamma/Nuclear receptor coactivator 1 (Homo sapiens, UniProt P37231)", "type": "functional"}, "[5]": {"biological_target": "Peroxisome proliferator-activated receptor gamma/Nuclear receptor coactivator 3 (Homo sapiens, UniProt P37231)", "type": "functional"}, "[6]": {"biological_target": "Peroxisome proliferator-activated receptor gamma/Nuclear receptor coactivator 2 (Homo sapiens, UniProt P37231)", "type": "functional"}, "[7]": {"biological_target": "T1, Polyadenylate-binding protein 1 (Homo sapiens, UniProt P11940)", "T1 sequence (P11940 whole entry, the tested form may be a part)": "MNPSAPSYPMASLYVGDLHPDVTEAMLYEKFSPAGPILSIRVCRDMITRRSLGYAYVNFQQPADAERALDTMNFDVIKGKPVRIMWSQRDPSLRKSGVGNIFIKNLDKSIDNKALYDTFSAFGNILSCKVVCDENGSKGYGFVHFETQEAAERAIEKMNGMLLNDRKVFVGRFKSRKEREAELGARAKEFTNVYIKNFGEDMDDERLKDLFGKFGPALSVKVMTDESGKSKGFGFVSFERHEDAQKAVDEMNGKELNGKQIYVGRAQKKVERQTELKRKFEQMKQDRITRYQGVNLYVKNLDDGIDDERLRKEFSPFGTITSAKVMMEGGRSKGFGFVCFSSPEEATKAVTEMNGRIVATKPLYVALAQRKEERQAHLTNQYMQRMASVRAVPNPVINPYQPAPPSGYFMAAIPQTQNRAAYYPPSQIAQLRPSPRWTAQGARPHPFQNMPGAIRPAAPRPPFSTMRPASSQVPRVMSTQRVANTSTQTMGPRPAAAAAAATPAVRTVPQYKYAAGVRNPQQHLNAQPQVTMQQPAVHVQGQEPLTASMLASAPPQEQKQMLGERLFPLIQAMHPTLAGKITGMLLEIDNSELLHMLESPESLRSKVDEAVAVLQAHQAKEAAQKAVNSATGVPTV", "assay": "MLLE domain peptide-binding blockers, IC50 – biochemical, fluorescence polarization, FITC-PAM2 peptide, dose response (AID 602259)", "type": "functional", "conditions": "read-out: IC50_Mean"}, "[8]": {"assay": "A Cell Based Secondary Assay To Explore Cytotoxicity of Compounds that Sensitize Mycobacterium Tuberculosis to Beta-Lactam Antibiotics.", "type": "functional"}, "[9]": {"biological_target": "T1, Polyadenylate-binding protein 1", "assay": "MLLE binding blockers, Cy5 peptide tracer – biochemical, fluorescence polarization, Cy5-PAM2 peptide, secondary, miRNA deadenylation inhibitor project, dose response (AID 602260)", "type": "functional", "conditions": "read-out: IC50_Mean"}, "[10]": {"assay": "Luminescence Cell-Based Dose Confirmation HTS to Identify Activators of 5'UTR Stem-Loop Driven Alpha-Synuclein mRNA Translation in H4 Neuroglioblastoma Cells. [Related pubchem assays: 1829 (Project Summary), 1814 (Primary HTS)]", "type": "functional"}, "[11]": {"tested_on": "H4", "assay": "Luminescence Cell-Based Dose Response HTS to Identify Activators of 5'UTR Stem-Loop Driven Prion Protein mRNA Translation in H4 Neuroglioblastoma Cells. [Related pubchem assays: 1829 (Project Summary), 1814 (Primary HTS)]", "type": "functional", "conditions": "Homo sapiens"}, "[12]": {"assay": "Luminescence Cell-Based Dose Response HTS to Identify Activators of Luciferase Translation or Activity in H4 […] Cells. [Related pubchem assays: 1829 (Project Summary), 1814 (Primary HTS)]", "type": "functional"}, "[13]": {"biological_target": "Induced myeloid leukemia cell differentiation protein Mcl-1 (Homo sapiens, UniProt Q07820)", "sequence (Q07820 whole entry)": "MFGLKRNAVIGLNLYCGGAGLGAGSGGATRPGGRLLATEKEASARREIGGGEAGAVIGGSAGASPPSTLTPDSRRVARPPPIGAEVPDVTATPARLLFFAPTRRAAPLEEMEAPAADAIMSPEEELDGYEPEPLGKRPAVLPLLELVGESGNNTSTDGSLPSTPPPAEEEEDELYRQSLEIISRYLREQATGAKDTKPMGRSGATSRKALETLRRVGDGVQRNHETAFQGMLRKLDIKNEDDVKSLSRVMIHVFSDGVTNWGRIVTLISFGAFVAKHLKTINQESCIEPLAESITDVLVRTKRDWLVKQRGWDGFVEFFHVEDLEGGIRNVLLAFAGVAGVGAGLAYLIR", "type": "functional"}, "[14]": {"biological_target": "NS3 (Hepatitis C virus, UniProt A3EZJ3)", "sequence (A3EZJ3 whole entry)": "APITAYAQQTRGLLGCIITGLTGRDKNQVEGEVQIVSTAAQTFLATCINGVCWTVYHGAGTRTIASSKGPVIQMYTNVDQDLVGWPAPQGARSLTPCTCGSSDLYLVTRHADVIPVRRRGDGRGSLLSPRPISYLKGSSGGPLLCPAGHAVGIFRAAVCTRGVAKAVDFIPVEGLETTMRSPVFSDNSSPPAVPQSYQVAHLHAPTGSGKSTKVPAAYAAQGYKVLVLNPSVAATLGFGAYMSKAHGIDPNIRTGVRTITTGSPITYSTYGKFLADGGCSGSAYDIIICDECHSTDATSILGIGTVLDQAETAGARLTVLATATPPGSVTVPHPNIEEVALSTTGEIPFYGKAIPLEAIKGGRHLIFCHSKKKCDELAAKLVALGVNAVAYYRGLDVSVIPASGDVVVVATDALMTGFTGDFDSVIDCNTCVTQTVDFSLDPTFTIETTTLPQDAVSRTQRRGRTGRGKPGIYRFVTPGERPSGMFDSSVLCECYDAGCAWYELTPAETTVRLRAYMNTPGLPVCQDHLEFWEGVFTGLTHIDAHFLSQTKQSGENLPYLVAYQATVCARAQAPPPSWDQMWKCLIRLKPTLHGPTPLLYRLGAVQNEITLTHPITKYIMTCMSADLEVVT", "assay": "PubChem AID 2173", "design": "species or system Hepacivirus hominis"}, "[15]": {"biological_target": "T2, Protein Tat (Human immunodeficiency virus type 1 group M subtype B (isolate HXB2)(HIV-1), UniProt P04608)", "T2 sequence (P04608 whole entry)": "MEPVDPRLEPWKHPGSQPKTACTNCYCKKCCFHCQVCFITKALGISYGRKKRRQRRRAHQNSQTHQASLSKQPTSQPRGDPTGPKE", "type": "functional"}},
  "note": "Calls of active or inactive are those of the source.",
  "data": [
    {"smiles": "Cc1ccccc1C(=O)Nc1nc2c(C)csc2c(=O)s1", "values": [
      {"measurement": "IC50", "setting": "[1]", "result": "> 50 µM (not active)"},
      {"measurement": "IC50", "setting": "[2]", "result": "> 50 µM (not active)"}
    ]},
    {"smiles": "O=C1CNC(=S)N1CCc1ccc(Cl)cc1", "values": [
      {"measurement": "EC50", "setting": "[3]", "result": "> 100 µM (active)"}
    ]},
    {"smiles": "CCOC(=O)c1oc2ccc(S(=O)(=O)N3CCC(C)CC3)cc2c1C", "values": [
      {"measurement": "EC50", "setting": "[4]", "result": "> 79.4 µM (not active)"},
      {"measurement": "EC50", "setting": "[5]", "result": "> 79.4 µM (not active)"},
      {"measurement": "EC50", "setting": "[6]", "result": "> 79.4 µM (not active)"}
    ]},
    {"smiles": "Cc1noc(/C=C/Nc2ccc(F)cc2F)c1[N+](=O)[O-]", "values": [
      {"measurement": "IC50", "setting": "[7]", "result": "27.5 µM (inactive)"},
      {"measurement": "CC50", "setting": "[8]", "result": "39 µM (active)"},
      {"measurement": "IC50", "setting": "[9]", "result": "35.7 µM (inactive)"}
    ]},
    {"smiles": "N#CC1=C2C=Cc3ccccc3N2CCCC1=O", "values": [
      {"measurement": "EC50", "setting": "[10]", "result": "20 µM (active)"},
      {"measurement": "EC50", "setting": "[11]", "result": "21 µM (active)"},
      {"measurement": "CC50", "setting": "[8]", "result": "> 40 µM (active)"},
      {"measurement": "EC50", "setting": "[12]", "result": "26.4 µM (active)"}
    ]},
    {"smiles": "O=C(c1ccc2nc(-c3ccco3)c(-c3ccco3)nc2c1)N1CCN(c2ncccn2)CC1", "values": [
      {"measurement": "IC50", "setting": "[13]", "result": "7.82 µM (active)"},
      {"measurement": "IC50", "setting": "[14]", "result": "11.5 µM (not active)"},
      {"measurement": "IC50", "setting": "[15]", "result": "7.28 µM (inconclusive)"}
    ]}
  ]
}
